# In US20260256797A1, “NOVEL INDENONE DERIVATIVES AND USES THEREOF” (AMYLOID SOLUTION INC., priority 2022, published 2026):
# Assays:
# [1] = target: Tau-RD3 (Tau repeat domain 3) (Homo sapiens, UniProt P10636); test: Tau disaggregation test by thioflavin-T assay; type: biochemical; details: 35 μM Tau-RD3 aggregated 24 hours, then compound 0-500 μM for 48 hours at 37° C.
# Method: (§1) Each compound was dissolved in DMSO to a concentration of 10 mM. Subsequently, the compound was diluted with 6% DMSO (in DW) and used.
# (§2) Specifically, amyloid-beta and tau solutions were prepared by dissolving Aβ1-42 or Tau-RD3 (Tau repeat domain 3) monomer in DMSO to a concentration of 10 mM. Thereafter, each solution was diluted with DW to a concentration of 100 μM and stored on ice. Meanwhile, thioflavin-T was dissolved in 50 mM glycine buffer (pH 8.5) to a concentration of 5 mM. Thereafter, the resulting solution was diluted with 50 mM glycine buffer (pH 8.5) to a concentration of 5 μM and stored in a dark room while light was blocked.
# (§3) Each of the amyloid-beta and tau solutions prepared according to Experimental Example 1.1 was added to a 1.5 mL microcentrifuge tube to a concentration of 50 μM or 35 µM, and then a reaction was allowed to occur therebetween at 37° C. for 24 hours. Each of the 1.5 mL microcentrifuge tubes in which amyloid-beta aggregation and tau aggregation had been completed was treated with each compound at a concentrated of 500 μM to 0 μM through serial dilution, and then a further reaction was allowed to occur therebetween at 37° C. for 48 hours. 25 μL of the reaction solution in which the reaction had been completed was added to each well of a 96-well plate for fluorescence analysis, and 75 μL of the previously prepared thioflavin-T solution was added to each well. After a reaction was allowed to occur at room temperature in the dark for 5 minutes, fluorescence values were measured at excitation 450 nm and emission 485 nm by using a multi-mode microplate reader.
# (§4) The fluorescence value of a group (control) treated with amyloid-beta or tau alone, followed by aggregation for 72 hours was converted into a percentage value and expressed as 100, and amyloid-beta and tau aggregates, in which aggregation had been completed upon reaction for 24 hours, were treated with each compound at each concentration and a further reaction was allowed to occur therebetween for 48 hours, and then fluorescence values thereof were measured and converted into relative values. The results thereof are illustrated in FIGS. 1 to 6 and 7 to 12. In addition, EC50 values of the compounds of the present disclosure for amyloid-beta and tau, respectively are summarized in Table 1.
# Aβ1-42 = target: T1, Aβ1-42 (Homo sapiens, UniProt P05067); test: Amyloid-beta (Aβ) disaggregation test by thioflavin-T assay; type: biochemical; details: 50 μM Aβ1-42 aggregated 24 hours, then compound 0-500 μM for 48 hours at 37° C.
# T1 construct: dissolving Aβ1-42 or Tau-RD3 (Tau repeat domain 3) monomer in DMSO
# Method: as §1, §2, §3, §4
# Sequence of Tau-RD3 (Tau repeat domain 3) (P10636 623-653 limits assumed): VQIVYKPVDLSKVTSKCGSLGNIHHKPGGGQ
# T1 sequence (P05067 672-713 limits assumed): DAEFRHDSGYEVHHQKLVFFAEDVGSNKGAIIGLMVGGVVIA
Structure (SMILES),EC50 [1],EC50 (Aβ1-42)
"Cc1scnc1C1=C(c2cccs2)C(=O)c2cc(OCOCc3ccccc3)ccc21 [Compound 30, 6-((benzyloxy)methoxy)-3-(5-methylthiazol-4-yl)-2-(thiophen-2-yl)-1H-inden-1-one]",410 µM,3.7 µM
"O=C1C(c2cccnc2)=C(c2ccoc2)c2ccc(OCCCCc3ccccc3)cc21 [Compound 39, 3-(furan-3-yl)-6-(4-phenylbutoxy)-2-(pyridin-3-yl)-1H-inden-1-one]",10.7 µM,2.6 µM
"O=C1C(c2cccnc2)=C(c2ccoc2)c2ccc(OCCOc3ccc4c(c3)OCO4)cc21 [Compound 44, 6-(2-(benzo[d][1,3]dioxol-5-yloxy)ethoxy)-3-(furan-3-yl)-2-(pyridin-3-yl)-1H-inden-1-one]",2.7 µM,1.8 µM
"Cc1scnc1C1=C(c2ccc(C(F)(F)F)cc2)C(=O)c2cc(OCCOc3ccncc3)ccc21 [Compound 35, 3-(5-methylthiazol-4-yl)-6-(2-(pyridin-4-yloxy)ethoxy)-2-(4-(trifluoromethyl)phenyl)-1H-inden-1-one]",> 500 µM,1 µM
"COc1ccc(OCCOc2ccc3c(c2)C(=O)C(c2ccc(F)cc2)=C3c2ncsc2C)cc1OC [Compound 23, 6-(2-(3,4-dimethoxyphenoxy)ethoxy)-2-(4-fluorophenyl)-3-(5-methylthiazol-4-yl)-1H-inden-1-one]",5.2 µM,4.1 µM
"Cc1scnc1C1=C(c2cccs2)C(=O)c2cc(OCCc3ccccc3)ccc21 [Compound 28, 3-(5-methylthiazol-4-yl)-6-phenethoxy-2-(thiophen-2-yl)-1H-inden-1-one]",310 µM,8.3 µM
"Cc1ncsc1C1=C(c2cccnc2)C(=O)c2cc(OCCOc3ccccc3)ccc21 [Compound 17, 3-(4-methylthiazol-5-yl)-6-(2-phenoxyethoxy)-2-(pyridin-3-yl)-1H-inden-1-one]",19.2 µM,5.7 µM
"Cc1scnc1C1=C(c2cncnc2)C(=O)c2cc(OCCOc3ccc(F)c(F)c3)ccc21 [Compound 27, 6-(2-(3,4-difluorophenoxy)ethoxy)-3-(5-methylthiazol-4-yl)-2-(pyrimidin-5-yl)-1H-inden-1-one]",> 500 µM,237 µM
"Cc1ncsc1C1=C(c2cccnc2)C(=O)c2cc(OCCc3ccccc3)ccc21 [Compound 14, 3-(4-methylthiazol-5-yl)-6-phenethoxy-2-(pyridin-3-yl)-1H-inden-1-one]",> 500 µM,177 µM
"Cc1ncsc1C1=C(c2cccnc2)C(=O)c2cc(OCCCc3ccncc3)ccc21 [Compound 13, 3-(4-methylthiazol-5-yl)-2-(pyridin-3-yl)-6-(3-(pyridin-4-yl)propoxy)-1H-inden-1-one]",1.5 µM,110 µM
"Cc1scnc1C1=C(c2cccs2)C(=O)c2cc(OCCCCc3ccccc3)ccc21 [Compound 29, 3-(5-methylthiazol-4-yl)-6-(4-phenylbutoxy)-2-(thiophen-2-yl)-1H-inden-1-one]",> 500 µM,7.5 µM
"COc1ccc(OCCOc2ccc3c(c2)C(=O)C(c2ccc(C(F)(F)F)cc2)=C3c2ncsc2C)cc1OC [Compound 33, 6-(2-(3,4-dimethoxyphenoxy)ethoxy)-3-(5-methylthiazol-4-yl)-2-(4-(trifluoromethyl)phenyl)-1H-inden-1-one]",145 µM,10.4 µM
"CC(C)c1ccc(OCCOc2ccc3c(c2)C(=O)C(c2cccnc2)=C3c2ccoc2)cc1 [Compound 49, 3-(furan-3-yl)-6-(2-(4-isopropylphenoxy)ethoxy)-2-(pyridin-3-yl)-1H-inden-1-one]",1.9 µM,1.5 µM
"COc1ccc(OCCOc2ccc3c(c2)C(=O)C(c2cccnc2)=C3c2ccoc2)cc1OC [Compound 43, 6-(2-(3,4-dimethoxyphenoxy)ethoxy)-3-(furan-3-yl)-2-(pyridin-3-yl)-1H-inden-1-one]",2.8 µM,1.8 µM
"Cc1ncsc1C1=C(c2cccs2)C(=O)c2cc(OCCCc3ccccc3)ccc21 [Compound 12, 3-(4-methylthiazol-5-yl)-6-(3-phenylpropoxy)-2-(thiophen-2-yl)-1H-inden-1-one]",154 µM,4.3 µM
"Cc1ncsc1C1=C(Br)C(=O)c2cc(OCCCc3ccccc3)ccc21 [Compound 3, 2-bromo-3-(4-methylthiazol-5-yl)-6-(3-phenylpropoxy)-1H-inden-1-one]",8.5 µM,3.8 µM

Structure (SMILES),EC50 [1],EC50 (Aβ1-42)
"O=C1C(c2cccnc2)=C(c2ccoc2)c2ccc(OCCOc3ccc(F)c(F)c3)cc21 [Compound 47, 6-(2-(3,4-difluorophenoxy)ethoxy)-3-(furan-3-yl)-2-(pyridin-3-yl)-1H-inden-1-one]",57 µM,1.7 µM
"Cc1scnc1C1=C(c2cccnc2)C(=O)c2cc(OCCCc3ccccc3)ccc21 [Compound 8, 3-(5-methylthiazol-4-yl)-6-(3-phenylpropoxy)-2-(pyridin-3-yl)-1H-inden-1-one]",4.2 µM,1.9 µM
"O=C1C(c2cccnc2)=C(c2ccoc2)c2ccc(OCCOc3ccncc3)cc21 [Compound 45, 3-(furan-3-yl)-2-(pyridin-3-yl)-6-(2-(pyridin-4-yloxy)ethoxy)-1H-inden-1-one]",11.9 µM,9.1 µM
"CN(C)c1ccc(OCCOc2ccc3c(c2)C(=O)C(c2cccnc2)=C3c2ccoc2)cc1 [Compound 48, 6-(2-(4-(dimethylamino)phenoxy)ethoxy)-3-(furan-3-yl)-2-(pyridin-3-yl)-1H-inden-1-one]",4.1 µM,2.3 µM
"O=C1C(c2cccnc2)=C(c2ccoc2)c2ccc(OCCOc3ccc(Cl)c(Cl)c3)cc21 [Compound 46, 6-(2-(3,4-dichlorophenoxy)ethoxy)-3-(furan-3-yl)-2-(pyridin-3-yl)-1H-inden-1-one]",2.1 µM,1.4 µM
"Cc1ncsc1C1=C(c2ccccc2)C(=O)c2cc(OCCCc3ccccc3)ccc21 [Compound 10, 3-(4-methylthiazol-5-yl)-2-phenyl-6-(3-phenylpropoxy)-1H-inden-1-one]",350 µM,5.6 µM
"O=C1C(c2cccnc2)=C(c2ccoc2)c2ccc(OCCOc3ccccc3)cc21 [Compound 41, 3-(furan-3-yl)-6-(2-phenoxyethoxy)-2-(pyridin-3-yl)-1H-inden-1-one]",4.8 µM,1.1 µM
"Cc1scnc1C1=C(c2cccs2)C(=O)c2cc(OCCOc3ccccc3)ccc21 [Compound 31, 3-(5-methylthiazol-4-yl)-6-(2-phenoxyethoxy)-2-(thiophen-2-yl)-1H-inden-1-one]",166 µM,12.8 µM
"COc1ccc(C2=C(c3ncsc3C)c3ccc(OCCc4ccccc4)cc3C2=O)cc1 [Compound 18, 2-(4-methoxyphenyl)-3-(5-methylthiazol-4-yl)-6-phenethoxy-1H-inden-1-one]",242 µM,26.1 µM
"Cc1ncsc1C1=C(c2cccnc2)C(=O)c2cc(OCCCc3ccccc3)ccc21 [Compound 1, 3-(4-methylthiazol-5-yl)-6-(3-phenylpropoxy)-2-(pyridin-3-yl)-1H-inden-1-one]",19.2 µM,8.2 µM
"COc1ccc(COCOc2ccc3c(c2)C(=O)C(c2cccnc2)=C3c2ccoc2)cc1 [Compound 50, 3-(furan-3-yl)-6-(((4-methoxybenzyl)oxy)methoxy)-2-(pyridin-3-yl)-1H-inden-1-one]",19.9 µM,2.3 µM
"O=C1C(c2cccnc2)=C(c2ccoc2)c2ccc(OCCCc3ccccc3)cc21 [Compound 9, 3-(furan-3-yl)-6-(3-phenylpropoxy)-2-(pyridin-3-yl)-1H-inden-1-one]",53.6 µM,19.1 µM
"Cc1scnc1C1=C(c2ccc(C(F)(F)F)cc2)C(=O)c2cc(OCCOc3ccc4c(c3)OCO4)ccc21 [Compound 34, 6-(2-(benzo[d][1,3]dioxol-5-yloxy)ethoxy)-3-(5-methylthiazol-4-yl)-2-(4-(trifluoromethyl)phenyl)-1H-inden-1-one]",426 µM,31.2 µM
"O=C1C(c2cccnc2)=C(c2ccoc2)c2ccc(OCOCc3ccccc3)cc21 [Compound 40, 6-((benzyloxy)methoxy)-3-(furan-3-yl)-2-(pyridin-3-yl)-1H-inden-1-one]",67.1 µM,2.1 µM
"Cc1scnc1C1=C(Br)C(=O)c2cc(OCCCN3CCOCC3)ccc21 [Compound 5, 2-bromo-3-(5-methylthiazol-4-yl)-6-(3-morpholinopropoxy)-1H-inden-1-one]",344 µM,65.6 µM
